PubChem BioAssay AID1963964 (Molecular Pharmacology Branch, DTP, NCI, 2024)

System: 997726-040-R-J2-PDC tumor spheroids, viability
Assay: Anticancer human tumor 997726-040-R-J2-PDC patient-derived squamous cell lung carcinoma cell line growth inhibition [PI3K]
Settings: spheroids with HUVEC and MSC; for IC50: curve of first compound; for viability, T/C: stronger effect = lower value; active means viability on the fitted dose curve at most 10% of control; inactive means the rest
Procedure, shortened: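 Three cell types, namely tumor cells, endothelial cells and mesenchymal stem cells, formed each spheroid. Combinations with four PI3K inhibitors were screened at clinically achievable concentrations decreasing by half-log, and spheroid viability was recorded.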

[1] = second compound 0.0316 µM, first compound 0.0316 µM
[2] = second compound 0.0316 µM, first compound 0.1 µM
[3] = second compound 0.0316 µM, first compound 0.316 µM
[4] = second compound 0.0316 µM, first compound 1 µM
[5] = second compound 0.0316 µM, first compound 3.16 µM
[6] = second compound 0.0316 µM, first compound 10 µM
[7] = second compound 0.1 µM, first compound 0.0316 µM
[8] = second compound 0.1 µM, first compound 0.1 µM
[9] = second compound 0.1 µM, first compound 0.316 µM
[10] = second compound 0.1 µM, first compound 1 µM
[11] = second compound 0.1 µM, first compound 3.16 µM
[12] = second compound 0.1 µM, first compound 10 µM
[13] = second compound 0.316 µM, first compound 0.0316 µM
[14] = second compound 0.316 µM, first compound 0.1 µM
[15] = second compound 0.316 µM, first compound 0.316 µM
[16] = second compound 0.316 µM, first compound 1 µM
[17] = second compound 0.316 µM, first compound 3.16 µM
[18] = second compound 0.316 µM, first compound 10 µM
[19] = second compound 1 µM, first compound 0.0316 µM
[20] = second compound 1 µM, first compound 0.1 µM
[21] = second compound 1 µM, first compound 0.316 µM
[22] = second compound 1 µM, first compound 1 µM
[23] = second compound 1 µM, first compound 3.16 µM
[24] = second compound 1 µM, first compound 10 µM
[25] = second compound 3.16 µM, first compound 0.0316 µM
[26] = second compound 3.16 µM, first compound 0.1 µM
[27] = second compound 3.16 µM, first compound 0.316 µM
[28] = second compound 3.16 µM, first compound 1 µM
[29] = second compound 3.16 µM, first compound 3.16 µM
[30] = second compound 3.16 µM, first compound 10 µM
[31] = second compound 10 µM, first compound 0.0316 µM
[32] = second compound 10 µM, first compound 0.1 µM
[33] = second compound 10 µM, first compound 0.316 µM
[34] = second compound 10 µM, first compound 1 µM
[35] = second compound 10 µM, first compound 3.16 µM
[36] = second compound 10 µM, first compound 10 µM
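Further: spheroids exposed to compounds for seven days before readout.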

C#Cc1c(F)ccc2cc(O)cc(-c3ncc4c(N5CC6CCC(C5)N6)nc(OCC56CCCN5CC(F)C6)nc4c3F)c12 (centres undefined) + Cc1nc(NC(=O)N2CCCC2C(N)=O)sc1-c1ccnc(C(C)(C)C(F)(F)F)c1
> 10000 nM: IC50 (second compound 0.0316 µM) | IC50 (second compound 0.1 µM)
inactive: viability, T/C [1] 89.9% | viability, T/C [2] 88.9% | viability, T/C [3] 84% | viability, T/C [4] 81.3% | viability, T/C [5] 77.9% | viability, T/C [6] 75.5% | viability, T/C [7] 77.4% | viability, T/C [8] 71.4% | viability, T/C [9] 74.6% | viability, T/C [10] 79.8% | viability, T/C [11] 60.9% | viability, T/C [12] 55% | viability, T/C [13] 59.6% | viability, T/C [14] 51.2% | viability, T/C [15] 51% | viability, T/C [16] 44.3% | viability, T/C [17] 42.9% | viability, T/C [18] 41.9% | viability, T/C [19] 41.4% | viability, T/C [20] 39.5% | viability, T/C [21] 41.7% | viability, T/C [22] 40.3% | viability, T/C [23] 40.3% | viability, T/C [24] 30% | viability, T/C [25] 30.8% | viability, T/C [26] 27.2% | viability, T/C [27] 31.2% | viability, T/C [28] 28.5% | viability, T/C [29] 30.5% | viability, T/C [30] 21.9% | viability, T/C [31] 15.8% | viability, T/C [32] 17.6% | viability, T/C [33] 13.4% | viability, T/C [34] 17.6% | viability, T/C [35] 14.1% | viability, T/C [36] 15.8%
220 nM: IC50 (second compound 0.316 µM)
< 31.6 nM: IC50 (second compound 1 µM) | IC50 (second compound 3.16 µM) | IC50 (second compound 10 µM)

C=CC(=O)N1CCN(c2nc(=O)n(-c3c(C)ccnc3C(C)C)c3nc(-c4c(O)cccc4F)c(F)cc23)C(C)C1 (centres undefined) + Cc1nc(NC(=O)N2CCCC2C(N)=O)sc1-c1ccnc(C(C)(C)C(F)(F)F)c1
> 10000 nM: IC50 (second compound 0.0316 µM) | IC50 (second compound 0.1 µM) | IC50 (second compound 0.316 µM)
< 31.6 nM: IC50 (second compound 1 µM) | IC50 (second compound 3.16 µM) | IC50 (second compound 10 µM)
inactive: viability, T/C [1] 82.8% | viability, T/C [2] 84.3% | viability, T/C [3] 101% | viability, T/C [4] 108% | viability, T/C [5] 102% | viability, T/C [6] 109% | viability, T/C [7] 76.3% | viability, T/C [8] 72.7% | viability, T/C [9] 71.1% | viability, T/C [10] 86.8% | viability, T/C [11] 101% | viability, T/C [12] 89.3% | viability, T/C [13] 53.3% | viability, T/C [14] 55.9% | viability, T/C [15] 61% | viability, T/C [16] 59.5% | viability, T/C [17] 63.6% | viability, T/C [18] 65.6% | viability, T/C [19] 40.8% | viability, T/C [20] 41.8% | viability, T/C [21] 45% | viability, T/C [22] 39.8% | viability, T/C [23] 52% | viability, T/C [24] 46.2% | viability, T/C [25] 30.9% | viability, T/C [26] 28.6% | viability, T/C [27] 33.6% | viability, T/C [28] 28.6% | viability, T/C [29] 34.1% | viability, T/C [30] 32.2% | viability, T/C [31] 16.2% | viability, T/C [32] 16% | viability, T/C [33] 15.9% | viability, T/C [34] 17.4% | viability, T/C [35] 22% | viability, T/C [36] 9.67%
